The text below walks through data of ChEMBL document CHEMBL1150835, “In vitro antiplasmodial activity of extracts of Tristaniopsis species and identification of the active constituents: ellagic acid and 3,4,5-trimethoxyphenyl-(6'-O-galloyl)-O-beta-D-glucopyranoside” (J Nat Prod, 2001).

The subject of series [1] is Plasmodium falciparum. The series can be described thus: Antiplasmodial activity after 24 hrs against chloroquine-resistant, mefloquine-sensitive Plasmodium falciparum W2 infected human erythrocytes by [G-3H]hypoxanthine uptake. The class given is functional, organism-based. Particulars: W2, 24 h.
Series [2] relates to Plasmodium falciparum. As to the kind of experiment: Antiplasmodial activity after 24 hrs against chloroquine-sensitive, mefloquine-resistant Plasmodium falciparum D6 infected human erythrocytes by [G-3H]hypoxanthine uptake. The class given is functional, organism-based. The conditions noted are these: D6, 24 h.
A short description of series [3]: Cytotoxicity against HSF assessed as decrease in proliferation at 100 uM by MTT assay. More on the design: scale not given: the % may be the effect or the level left. The conditions noted are these: human. On the technique in general: Formazan colour is commonly taken as a measure of viable cells.
Another series concerns HepG2. As to the kind of experiment: (§1) Cytotoxicity against human HepG2 cells assessed as decrease in proliferation at 100 uM by MTT assay. Format: cell-based. Particulars: hepg2, 100 µM.
Series [4] can be described thus: as §1. The class given is cell-based. Particulars: HepG2 cells, read-out: Activity.

Each structure is given as a SMILES string. Values after ≈ are worked out from the molar mass of the structure shown.

Usually IC50 stands for the concentration that inhibits the measured activity by half. `OC(c1cc(C(F)(F)F)nc2c(C(F)(F)F)cccc12)C1CCCCN1` (configuration not stated) [MEFLOQUINE] came in with a half-maximal inhibitory concentration (IC50) in the series on Plasmodium falciparum [1] of 0.00136 µg/mL (≈ 0.00359 µM).
`O=C(O)c1ccc(O)cc1` [PARABEN]: the IC50 with Plasmodium falciparum [2] is > 5 µg/mL.
With `COc1cc(O[C@@H]2O[C@H](COC(=O)c3cc(O)c(O)c(O)c3)[C@@H](O)[C@H](O)[C@H]2O)cc(OC)c1OC`, the IC50 was found to be 1.75 µg/mL (≈ 3.5 µM) in the series on Plasmodium falciparum [2] and 1.58 µg/mL (≈ 3.18 µM) with Plasmodium falciparum [1]. Also, the Activity entry (in series [3]; in the series on HepG2) was “Non-toxic” throughout.
In the case of `O=C(O)c1ccc(O)c(O)c1` [PROTOCATECHUIC ACID], the half-inhibitory concentration (IC50) in the series with Plasmodium falciparum [2] is > 5 µg/mL.
Regarding `O=c1oc2c(O)c(O)cc3c(=O)oc4c(O)c(O)cc1c4c23` [ELLAGIC ACID], the results for the 50% inhibitory concentration (IC50) in the series with Plasmodium falciparum [2] and in the series on Plasmodium falciparum [1] were 0.145 µg/mL (≈ 0.48 µM) and 0.103 µg/mL (≈ 0.341 µM), respectively. Further, the Activity in series [3] is recorded as 20%. For the same molecule, in series [4], the inhibition at 100 µM is 9%.
On to `O=C(O)c1cc(O)c(O)c(O)c1` [GALLIC ACID], for which, in the series on Plasmodium falciparum [2], the half-maximal inhibitory concentration (IC50) is > 5 µg/mL.
